{"source": "patent US8183227B1", "about": "“Compositions, kits and methods for nutrition supplementation” (Chemo S. A. France, priority 2011, dated 2012)", "origin": "cited, not measured here", "conditions": "intake of about 1000 IU per day, all adults", "data": [{"smiles": "C=C1CC[C@H](O)C/C1=C/C=C1\\CCC[C@]2(C)[C@@H]([C@H](C)CCCC(C)C)CC[C@@H]12", "note": "[vitamin D3, cholecalciferol]", "values": [{"measurement": "share of the population brought up to the 30 ng/ml serum range for 25-hydroxyvitamin D", "value": "at least 50 % of the population"}]}]}
